The test system of series [1] is metastatic human melanoma cell line. As to the kind of experiment: SEM observation of metastatic human melanoma cell line inoculated on a cell sheet of normal human skin cell after adding an anti-cancer drug. It is filed as cell-based. The conditions noted are these: 60 minutes after sorafenib was added; cell sheet of human skin-derived fibroblast cell; SEM image. The method, then:
(§1) A protective agent for electron microscopic observation and a surfactant-containing solution were prepared in the same manner as in Example 1.
A cell sheet obtained by culturing a normal human skin cell in a plate shape was inoculated with a metastatic human melanoma cell line and treated with the protective agent for electron microscopic observation and the surfactant-containing solution in 60 minutes after sorafenib of a kind of anti-cancer drug was added the cell sheet. Thereafter, the metastatic human melanoma cell line covered with the surfactant-containing solution was introduced into the sample chamber of the SEM, irradiated with an electron beam to polymerize the surfactant-containing solution and thus to form a thin film, and subjected to the SEM observation.
FIG. 17(a) is an image of the metastatic human melanoma cell line which was inoculated onto a cell sheet of the human skin-derived fibroblast cell, to which sorafenib was added, and which was observed and taken at a magnification of 1000-fold by a SEM. In addition, FIG. 17(b) is an image of FIG. 17(a) which was observed and taken at a magnification of 5000-fold by a SEM.

In a further series the test system is artificial human skin. As to the kind of experiment: SEM observation of three-dimensionally cultured artificial human skin after adding a drug (side effect evaluation). Type of series: cell-based. The conditions noted are these: 60 minutes after gefitinib dissolved in DMSO was added; SEM 2,500-fold; DMSO control kept normal morphology. As for the experimental part: as §1
The artificial human skin obtained by sterically three-dimensionally culturing a normal human skin cell was treated with the protective agent for electron microscopic observation and the surfactant-containing solution in 60 minutes after gefitinib was added the artificial human skin. Thereafter, the artificial human skin covered with the surfactant-containing solution was introduced into the sample chamber of the SEM, irradiated with an electron beam to polymerize the surfactant-containing solution and thus to form a thin film, and subjected to the SEM observation (Example 12).
FIGS. 18A and 18B are photographs of the three-dimensionally cultured artificial human skin. FIG. 18A is a photograph which illustrates the artificial human skin being cultured and the culture vessel. In addition, FIG. 18B is a photograph of the HE-stained pathological section of the artificial human skin of FIG. 18A. FIG. 19(a) is an image of the artificial human skin which was observed and taken at a magnification of 2,500-fold by a SEM after gefitinib dissolved in dimethyl sulfoxide (DMSO) was added the artificial human skin. […]

For `CNC(=O)c1cc(Oc2ccc(NC(=O)Nc3ccc(Cl)c(C(F)(F)F)c3)cc2)ccn1` [sorafenib], the “extension of a microfiber and invasion of the melanoma cell line into the normal skin cell” value in series [1] was “not able to extend a microfiber so that the invasion thereof is suppressed”.
With `COc1cc2ncnc(Nc3ccc(F)c(Cl)c3)c2cc1OCCCN1CCOCC1` [gefitinib], in the series on artificial human skin, the “surface change of a skin cell (side effect)” value is listed as “peeled off in a scale shape”.

For the origin of these results see patent publication US10128078B2, “Protective agent for electron microscopic observation of biological sample in water-containing state, kit for electron microscopic observation, methods for observation, diagnosis, evaluation, and quantification by electron microscope, and sample stage” (JAPAN SCIENCE AND TECHNOLOGY AGENCY, priority 2014, dated 2018).
